Measurements: patent publication US20230087196A1, “Application of circIKBKB Inhibitors and Test Reagents thereof in Diagnosis, Treatment and Prognosis Kits for Breast Cancer Bone Metastasis” (SUN YAT-SEN UNIVERSITY CANCER CENTER, priority 2021, published 2023)

What was measured:
SCP2 cells [1] = assay: In vivo bone metastasis prevention model: SCP2 cells into left ventricle of nude mice, eIF4A3-IN-2 intragastric from the second day; conditions: 1 mg/kg intragastric from the second day after SCP2 injection, vs vehicle
Protocol: Experiment 2: SCP2 cells were injected into the left ventricle of nude mice (1*10^6 cells/mouse), and eIF4A3-IN-2 (1 mg/kg) was administered to the mice by intragastric administration from the second day. The mice were sacrificed after 60 days, and hindlimbs of the mice were taken for μCT analysis, H&E and TRAP staining.

SCP2 cells [2] = assay: In vivo established bone metastasis model: SCP2 cells into left ventricle of nude mice, eIF4A3-IN-2 started when bone-metastatic tumors formed; conditions: 1 mg/kg intragastric, started when BLI signal reached 2×10^7 p/sec/cm^2/sr, after 5 weeks treatment, vs vehicle
Protocol: Experiment 3: SCP2 cells were injected into the left ventricle of nude mice (1*10^6 cells/mouse). eIF4A3-IN-2 (1 mg/kg) treatment via intragastric administration was started when bioluminescence signal of bone-metastatic tumors reached 2×10^7 p/sec/cm^2/sr. The mice were sacrificed after 60 days, and the hindlimbs of the mice were taken for μCT analysis, H&E and TRAP staining.

Compound: O=C(c1cnn2cc(Br)ccc12)N1CCN(C(=O)c2ccc(Br)cc2)[C@@H](c2ccc(Cl)cc2)C1 [eIF4A3-IN-2]
- number of TRAP+-osteoclasts in bone surface area (SCP2 cells [1]): less
- onsets of bone-metastases and bone-metastasis burden (SCP2 cells [1]): significantly delayed
- osteolytic areas (SCP2 cells [1]): less
- bone-metastatic tumor burden (SCP2 cells [2]): decreased
- onsets of bone metastases (SCP2 cells [2]): dramatically reduced
